The record followed here is patent publication US7671065B2, “Pyridine derivatives as potassium ion channel openers” (Janssen Pharmaceutica N.V., priority 2005, dated 2010).

Molecules are shown by their SMILES.

T1 sequence (Q14654 whole entry): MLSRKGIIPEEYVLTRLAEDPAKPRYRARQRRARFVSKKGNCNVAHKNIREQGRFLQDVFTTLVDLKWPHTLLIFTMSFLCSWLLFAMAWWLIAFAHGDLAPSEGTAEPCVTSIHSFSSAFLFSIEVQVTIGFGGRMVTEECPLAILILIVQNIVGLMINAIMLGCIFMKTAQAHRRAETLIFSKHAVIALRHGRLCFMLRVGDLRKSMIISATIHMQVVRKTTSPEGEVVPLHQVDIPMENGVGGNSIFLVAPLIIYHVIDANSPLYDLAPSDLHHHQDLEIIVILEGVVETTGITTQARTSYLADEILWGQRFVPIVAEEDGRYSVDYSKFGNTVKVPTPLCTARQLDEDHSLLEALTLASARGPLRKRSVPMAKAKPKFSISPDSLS
T1 sequence (O60706 1-1549 isoform O60706-2): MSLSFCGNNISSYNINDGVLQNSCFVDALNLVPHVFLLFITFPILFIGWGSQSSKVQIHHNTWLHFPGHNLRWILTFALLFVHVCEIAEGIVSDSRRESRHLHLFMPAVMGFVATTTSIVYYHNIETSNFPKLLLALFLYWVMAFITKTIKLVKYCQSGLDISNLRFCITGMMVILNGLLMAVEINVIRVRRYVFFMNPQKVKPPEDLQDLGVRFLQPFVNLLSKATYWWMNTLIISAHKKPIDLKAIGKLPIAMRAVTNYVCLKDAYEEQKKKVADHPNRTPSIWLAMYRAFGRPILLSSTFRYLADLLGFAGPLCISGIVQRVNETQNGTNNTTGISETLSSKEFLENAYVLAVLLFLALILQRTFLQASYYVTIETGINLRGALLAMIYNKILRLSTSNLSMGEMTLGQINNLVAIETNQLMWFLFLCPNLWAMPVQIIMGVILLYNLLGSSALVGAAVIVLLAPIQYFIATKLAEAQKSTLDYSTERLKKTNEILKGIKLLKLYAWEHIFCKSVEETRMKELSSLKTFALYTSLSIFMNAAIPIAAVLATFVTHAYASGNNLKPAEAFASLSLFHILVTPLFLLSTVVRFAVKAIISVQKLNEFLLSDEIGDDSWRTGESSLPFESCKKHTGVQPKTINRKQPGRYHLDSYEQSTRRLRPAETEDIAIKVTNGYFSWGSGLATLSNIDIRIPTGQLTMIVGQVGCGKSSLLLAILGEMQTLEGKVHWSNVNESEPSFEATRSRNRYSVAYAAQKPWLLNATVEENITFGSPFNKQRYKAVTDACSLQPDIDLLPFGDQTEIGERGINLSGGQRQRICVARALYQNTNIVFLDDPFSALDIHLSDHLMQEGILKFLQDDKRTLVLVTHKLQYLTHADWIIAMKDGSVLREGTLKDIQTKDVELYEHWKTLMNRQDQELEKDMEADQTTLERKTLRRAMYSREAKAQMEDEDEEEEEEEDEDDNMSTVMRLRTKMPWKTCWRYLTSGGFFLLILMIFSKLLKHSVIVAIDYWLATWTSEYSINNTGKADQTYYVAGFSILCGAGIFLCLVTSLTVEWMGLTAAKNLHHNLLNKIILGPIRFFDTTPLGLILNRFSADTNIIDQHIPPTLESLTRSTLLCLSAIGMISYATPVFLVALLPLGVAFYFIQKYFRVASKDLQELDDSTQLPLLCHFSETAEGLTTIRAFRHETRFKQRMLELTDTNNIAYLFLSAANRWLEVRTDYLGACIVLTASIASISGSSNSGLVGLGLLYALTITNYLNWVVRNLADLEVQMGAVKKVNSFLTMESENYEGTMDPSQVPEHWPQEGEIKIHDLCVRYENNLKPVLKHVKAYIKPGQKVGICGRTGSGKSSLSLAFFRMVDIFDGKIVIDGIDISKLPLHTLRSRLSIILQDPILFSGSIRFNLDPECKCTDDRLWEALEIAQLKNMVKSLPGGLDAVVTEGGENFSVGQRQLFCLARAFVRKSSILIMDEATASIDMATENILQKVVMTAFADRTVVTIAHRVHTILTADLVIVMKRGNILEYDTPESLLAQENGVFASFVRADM

This assay addresses T1, KATP channels (Homo sapiens, UniProt O60706+Q14654).
T1 construct: TE671 human medulloblastoma cells were obtained from ATCC; host or cells: TE671 human medulloblastoma cells
The assay can be described thus: Potassium Channel Assay (FLIPR membrane potential dye, TE671 cells). The class given is cell-based. To be noted: TE671 human medulloblastoma cells, room temperature, fluorescence change monitored for 3 minutes. The protocol:
TE671 human medulloblastoma cells were obtained from ATCC and grown in Dulbecco's modified Eagle's medium (DMEM) supplemented with 10% fetal bovine serum, 100 U/ml penicillin and 100 U/ml streptomycine.
The day before testing, the cells were plated in black 96-well plates at 50K/well. On the day of testing, the growth media was removed, then 100 μl of FLIPR buffer (20 mM HEPES, 120 mM NaCl, 2 mM KCl, 2 mM CaCl2, 1 mM MgCl2, 5 mM Glucose) and 100 μl of Membrane Potential Assay Dye (Molecular Devices) dissolved in FLIPR buffer were added to each well. The cells were incubated at room temperature for 15 to 30 min.
The effect of test compounds on KATP channels were evaluated on a fluorometric imaging plate reader (FLIPR, Molecular Devices) at room temperature. After a baseline period, 50 μl of 5× stock solution of test compound prepared in FLIPR buffer was added and fluorescence change was monitored for 3 minutes. After this reading, glyburide, a KATP channel blocker, was added to a final concentration of 5 μM to check the specificity of the test compound as a KATP channel opener. Hyperpolarization resulting from KATP channel opening was observed as a decrease in fluorescence intensity.
Representative compounds of the present invention were tested according to the procedure described above, with results as listed in Table 7 below.
In the case of `CCOC(=O)c1cnc2cc(C(F)(F)F)ccc2c1-c1cccc(C(C)=O)c1` [Compound 7, 4-(3-Acetyl-phenyl)-7-trifluoromethyl-quinoline-3-carboxylic acid ethyl ester], the “% Stimulation” value is given as 2% and the concentration for a half-maximal effect (EC50) was over 30 µM. For `COc1ccc(F)cc1C(O)c1cnccc1-c1cccc(C#N)c1` (centres unmarked) [Compound 36, 3-{3-[(5-Fluoro-2-methoxy-phenyl)-hydroxy-methyl]-pyridin-4-yl}-benzonitrile] the same measures were 24% and over 30 µM. For `COc1ccc(C(O)c2cnccc2-c2cccc(C#N)c2)cc1` (centres unmarked) [Compound 30, 3-{3-[Hydroxy-(4-methoxy-phenyl)-methyl]-pyridin-4-yl}-benzonitrile] the same measures were 7% and over 30 µM. Turning to `CCOC(=O)c1cnc2cc(C(F)(F)F)ccc2c1-c1cc(C=O)ccc1OC` [Compound 9, 4-(5-Formyl-2-methoxy-phenyl)-7-trifluoromethyl-quinoline-3-carboxylic acid ethyl ester], the EC50 amounted to 7.73 µM.

Compound `O=C(c1ccccc1)c1ccncc1C(O)c1ccccc1` (centres unmarked) [Compound 43, [3-(Hydroxy-phenyl-methyl)-pyridin-4-yl]-phenyl-methanone] returned an EC50 of 17.4 µM. Consider `CCOC(=O)c1cnc2cc(C(F)(F)F)ccc2c1-c1cccc(C(F)(F)F)c1` [Compound 10, 7-Trifluoromethyl-4-(3-trifluoromethyl-phenyl)-quinoline-3-carboxylic acid ethyl ester], for which the “% Stimulation” value is listed as 22% and the EC50 is over 30 µM. Taken in the same sequence, the figures for `Cc1cc(C)c(C(O)c2cnccc2-c2cccc(C#N)c2)c(C)c1` (centres unmarked) [Compound 35, 3-{3-[Hydroxy-(2,4,6-trimethyl-phenyl)-methyl]-pyridin-4-yl}-benzonitrile] were 37% and over 30 µM. As to `OC1OC(c2ccccc2)c2ccncc21` (centres unmarked) [Compound 65, 1-Phenyl-1,3-dihydro-furo[3,4-c]pyridin-3-ol], the “% Stimulation” value amounted to 34% and the 50% effective concentration (EC50) is over 30 µM. For `CCOC(=O)c1cnc2cc(C(F)(F)F)ccc2c1-c1cccc(C=O)c1` [Compound 11, 4-(3-Formyl-phenyl)-7-trifluoromethyl-quinoline-3-carboxylic acid ethyl ester] the same measures were 2% and over 30 µM. For `N#Cc1cccc(C2OC(O)c3cnccc32)c1` (centres unmarked) [Compound 55, 3-(3-Hydroxy-1,3-dihydro-furor[3,4-c]pyridin-1-yl)-benzonitrile], the “% Stimulation” value turned out to be 24% and the EC50 is over 30 µM.

Take `CCOC(=O)c1cnc2cc(C(F)(F)F)ccc2c1-c1ccc(C)c(C)c1` [Compound 13, 4-(3,4-Dimethyl-phenyl)-7-trifluoromethyl-quinoline-3-carboxylic acid ethyl ester]: the “% Stimulation” value was 0% and the EC50 was over 30 µM.

`COc1ccc(OC)c(C(O)c2cnccc2C(=O)c2ccccc2)c1` (centres unmarked) [Compound 46, {3-[(2,5-Dimethoxy-phenyl)-hydroxy-methyl]-pyridin-4-yl}-phenyl-methanone] showed an EC50 of 12.1 µM.

The compound `Cc1ccccc1C(O)c1cnccc1-c1cccc(C#N)c1` (centres unmarked) [Compound 31, 3-{3-[Hydroxy-(2-methyl-phenyl)-methyl]-pyridin-4-yl}-benzonitrile] came in with an EC50 of 15 µM.

Compound `N#Cc1cccc(C2OCc3cnccc32)c1` (centres unmarked) [Compound 66, 3-(1,3-Dihydro-furor[3,4-c]pyridin-1-yl)-benzonitrile] yielded an EC50 of 8.19 µM.

One may read the EC50 as the concentration that produces a half-maximal response. Read a high EC50 as a less potent agent.
